In patent publication US12129266B2, “Substituted pyrazolo[1,5-a]pyridine compound, composition containing the same and use thereof” (Shenzhen TargetRx, Inc., priority 2018, dated 2024):

Key:
[1] = Metabolic stability evaluation, liver microsome assay (RLM); assay type: in vitro ADME, SD rat; settings: Sprague-Dawley, pH 7.4, rat liver microsomes 0.5 mg/mL, compound 1 μM, NADPH, 37° C.; for half-life at 1 μM: read-out: RLM t1/2
Description: (§1) Microsome assay: human liver microsomes (HLM): 0.5 mg/mL, Xenotech; rat liver microsomes (RLM): 0.5 mg/mL, Xenotech; mice liver microsomes (MLM): 0.5 mg/mL, Xenotech; coenzyme (NADPH/NADH): 1 mM, Sigma Life Science; magnesium chloride: 5 mM, 100 mM phosphate buffer (pH is 7.4).
(§2) Preparation of stock solution: a certain amount of powder of the example compound and the reference compound were accurately weighed, and dissolved to 5 mM with DMSO, respectively.
(§3) Preparation of phosphate buffer (100 mM, pH7.4): Pre-formulated 150 mL 0.5 M potassium dihydrogen phosphate and 700 mL 0.5 M dipotassium hydrogen phosphate solution were mixed, then the pH of the mixture was adjusted to 7.4 with 0.5 M dipotassium hydrogen phosphate solution. Before use, 5-fold dilution was made with ultra-pure water, and magnesium chloride was added to afford phosphate buffer (100 mM), which containing 100 mM potassium phosphate, 3.3 mM magnesium chloride, pH is 7.4.
(§4) NADPH regeneration system solution (containing 6.5 mM NADP, 16.5 mM G-6-P, 3 U/mL G-6-P D, 3.3 mM magnesium chloride) was prepared and placed on wet ice before use.
(§5) Preparation of stop solution: Acetonitrile solution containing 50 ng/mL propranolol hydrochloride and 200 ng/mL tolbutamide (internal standard). 25057.5 μL phosphate buffer (pH 7.4) was taken into a 50 mL centrifuge tube, and 812.5 μL human liver microsome was added, mixed well to afford liver microsome diluent with a protein concentration of 0.625 mg/mL. 25057.5 μL phosphate buffer (pH 7.4) was taken into a 50 mL centrifuge tube, and 812.5 μL SD rat liver microsome was added, respectively, mixed well to afford liver microsome diluent with a protein concentration of 0.625 mg/mL. 25057.5 μL phosphate buffer (pH 7.4) was taken into a 50 mL centrifuge tube, and 812.5 μL mice liver microsome was added, respectively, mixed well to afford liver microsome diluent with a protein concentration of 0.625 mg/mL.
(§6) Incubation of the sample: The stock solutions of the corresponding compounds were diluted to 0.25 mM with an aqueous solution containing 70% acetonitrile as working solutions for use. 398 μL of human liver microsome or rat liver microsome or mice liver microsome diluent was taken and added to a 96-well incubation plate (N=2), respectively, and 2 μL of 0.25 mM working solution was then added respectively, and mixed well.
(§7) Determination of metabolic stability: 300 μL of pre-chilled stop solution was added to each well of a 96-well deep well plate and the plate was placed on ice as a stop plate. The 96-well incubation plate and NADPH regeneration system were placed in a 37° C. water bath box, shook at 100 rpm, and pre-incubated for 5 min. 80 μL of incubation solution was taken from each well of the incubation plate and added to the stop plate, mixed well, and 20 μL of NADPH regeneration system solution was supplemented, the resulted solution was considered as sample at 0 min. Then 80 μL of NADPH regeneration system solution was added to each well of the incubation plate to start the reaction and started timing. The reaction concentration of the corresponding compound is 1 μM, and the protein concentration is 0.5 mg/mL. 100 μL reaction solution was taken at 10, 30, 90 min of reaction, respectively, and added into stop plate, the reaction was stopped with 3 min vortex. The stop plate was centrifuged at 5000×g, 4° C. for 10 min. 100 μL of supernatant was taken to a 96-well plate where 100 μL of distilled water was added in advance, mixed well, sample analysis was subjected by LC-MS/MS.
(§8) Data analysis: LC-MS/MS system was used to detect peak area of corresponding compound and internal standard, peak area ratio of compound and internal standard was calculated.
(§9) [formula] t1/2(min); CLint(μL/min/mg).

[2] = Metabolic stability evaluation, liver microsome assay (HLM); assay type: in vitro ADME; settings: pH 7.4, human liver microsomes 0.5 mg/mL, compound 1 μM, NADPH, 37° C.; for half-life at 1 μM: read-out: HLM t1/2
Description: as §1, §2, §3, §4, §5, §6, §7, §8, §9

[3] = Metabolic stability evaluation, liver microsome assay (MLM); assay type: in vitro ADME; settings: mouse, mouse liver microsomes, pH 7.4, mice liver microsomes 0.5 mg/mL, compound 1 μM, NADPH, 37° C.; for half-life at 1 μM: read-out: MLM t1/2
Description: as §1, §2, §3, §4, §5, §6, §7, §8, §9

[4] = tested on: Ba/F3 parental; assay: cells; settings: Mus musculus, BaF3, 72 h, read-out: IC50 (nM) Ba/F3 parental
[5] = tested on: Ba/F3 KIF5B-RET^V804M; assay: Cytotoxicity assay (CellTiter-Glo), Ba/F3 KIF5B-RET V804M; assay type: cell-based; settings: Mus musculus, BaF3; cell viability, 72 hours, CTG
[6] = tested on: Ba/F3 KIF5B-RET; assay: Cytotoxicity assay (CellTiter-Glo), Ba/F3 KIF5B-RET; assay type: cell-based; settings: Mus musculus, BaF3; cell viability, 72 hours, CTG

## [2H]C([2H])([2H])Oc1ccc(CN2C3CC2CN(c2ccc(-c4cc(-c5cnn(C)c5)cn5ncc(C#N)c45)cn2)C3)cn1 [Example 1, 4-(6-(6-((6-(methoxy-d3)pyridin-3-yl)methyl)-3,6-diazabicyclo[3.1.1]heptan-3-yl)pyridin-3-yl)-6-(1-methyl-1H-pyrazol-4-yl)pyrazolo[1,5-a]pyridine-3-carbonitrile]
[1]
  microsomal CLint at 1 μM: 51.5 µL/min/mg
  half-life at 1 μM: 26.9 min
[2]
  microsomal CLint at 1 μM: 87.5 µL/min/mg
  half-life at 1 μM: 15.8 min
[3]
  microsomal CLint at 1 μM: 73.2 µL/min/mg
  half-life at 1 μM: 18.9 min

## [2H]C([2H])(c1ccc(OC)nc1)N1C2CC1CN(c1ccc(-c3cc(-c4cnn(C)c4)cn4ncc(C#N)c34)cn1)C2 [Example 2, 4-(6-(6-((6-methoxypyridin-3-yl)methyl-d2)-3,6-diazabicyclo[3.1.1]heptan-3-yl)pyridin-3-yl)-6-(1-methyl-1H-pyrazol-4-yl)pyrazolo[1,5-a]pyridine-3-carbonitrile]
[1]
  microsomal CLint at 1 μM: 35.1 µL/min/mg
  half-life at 1 μM: 39.5 min
[2]
  microsomal CLint at 1 μM: 105 µL/min/mg
  half-life at 1 μM: 13.2 min
[3]
  microsomal CLint at 1 μM: 78.3 µL/min/mg
  half-life at 1 μM: 17.7 min

## [2H]C([2H])([2H])Oc1ccc(C([2H])([2H])N2C3CC2CN(c2ccc(-c4cc(-c5cnn(C)c5)cn5ncc(C#N)c45)cn2)C3)cn1 [Example 3, 4-(6-(6-((6-(methoxy-d3)pyridin-3-yl)methyl-d2)-3,6-diazabicyclo[3.1.1]heptan-3-yl)pyridin-3-yl)-6-(1-methyl-1H-pyrazol-4-yl)pyrazolo[1,5-a]pyridine-3-carbonitrile]
[1]
  microsomal CLint at 1 μM: 55.3 µL/min/mg
  half-life at 1 μM: 25.1 min
[2]
  microsomal CLint at 1 μM: 85.6 µL/min/mg
  half-life at 1 μM: 16.2 min
[3]
  microsomal CLint at 1 μM: 68.8 µL/min/mg
  half-life at 1 μM: 20.2 min

## [2H]C([2H])([2H])Oc1ccc(CN2C3CC2CN(c2ccc(-c4cc(-c5cnn(C([2H])([2H])[2H])c5)cn5ncc(C#N)c45)cn2)C3)cn1 [Example 4, 4-(6-(6-((6-(methoxy-d3)pyridin-3-yl)methyl)-3,6-diazabicyclo[3.1.1]heptan-3-yl)pyridin-3-yl)-6-(1-(methyl-d3)-1H-pyrazol-4-yl)pyrazolo[1,5-a]pyridine-3-carbonitrile]
[1]
  microsomal CLint at 1 μM: 49.1 µL/min/mg
  half-life at 1 μM: 28.2 min
[2]
  microsomal CLint at 1 μM: 97.9 µL/min/mg
  half-life at 1 μM: 14.2 min
[3]
  microsomal CLint at 1 μM: 63.5 µL/min/mg
  half-life at 1 μM: 21.8 min

## [2H]C([2H])(c1ccc(OC)nc1)N1C2CC1CN(c1ccc(-c3cc(-c4cnn(C([2H])([2H])[2H])c4)cn4ncc(C#N)c34)cn1)C2 [Example 5, 4-(6-(6-((6-methoxypyridin-3-yl)methyl-d2)-3,6-diazabicyclo[3.1.1]heptan-3-yl)pyridin-3-yl)-6-(1-(methyl-d3)-1H-pyrazol-4-yl)pyrazolo[1,5-a]pyridine-3-carbonitrile]
[1]
  microsomal CLint at 1 μM: 37.9 µL/min/mg
  half-life at 1 μM: 36.6 min
[2]
  microsomal CLint at 1 μM: 83.2 µL/min/mg
  half-life at 1 μM: 16.7 min
[3]
  microsomal CLint at 1 μM: 75.8 µL/min/mg
  half-life at 1 μM: 18.3 min

## [2H]C([2H])([2H])Oc1ccc(C([2H])([2H])N2C3CC2CN(c2ccc(-c4cc(-c5cnn(C([2H])([2H])[2H])c5)cn5ncc(C#N)c45)cn2)C3)cn1 [Example 6, 4-(6-(6-((6-(methoxy-d3)pyridin-3-yl)methyl-d2)-3,6-diazabicyclo[3.1.1]heptan-3-yl)pyridin-3-yl)-6-(1-(methyl-d3)-1H-pyrazol-4-yl)pyrazolo[1,5-a]pyridine-3-carbonitrile]
[1]
  microsomal CLint at 1 μM: 47.3 µL/min/mg
  half-life at 1 μM: 29.3 min
[2]
  microsomal CLint at 1 μM: 112 µL/min/mg
  half-life at 1 μM: 12.4 min
[3]
  microsomal CLint at 1 μM: 65 µL/min/mg
  half-life at 1 μM: 21.3 min

## [2H]C([2H])([2H])n1cc(-c2cc(-c3ccc(N4CC5CC(C4)N5Cc4ccc(OC)nc4)nc3)c3c(C#N)cnn3c2)cn1 [Example 7, 4-(6-(6-((6-methoxypyridin-3-yl)methyl)-3,6-diazabicyclo[3.1.1]heptan-3-yl)pyridin-3-yl)-6-(1-(methyl-d3)-1H-pyrazol-4-yl)pyrazolo[1,5-a]pyridine-3-carbonitrile]
[1]
  microsomal CLint at 1 μM: 11.3 µL/min/mg
  half-life at 1 μM: 122 min
[2]
  microsomal CLint at 1 μM: 11.1 µL/min/mg
  half-life at 1 μM: 124 min
[3]
  microsomal CLint at 1 μM: 76 µL/min/mg
  half-life at 1 μM: 18.2 min

## [2H]C([2H])(c1ccc(OC)nc1)N1C2CC1CN(c1ccc(-c3cc(OC[C@H]4CNCCO4)cn4ncc(C#N)c34)cn1)C2 [Example 8]
[1]
  microsomal CLint at 1 μM: 5.3 µL/min/mg
  half-life at 1 μM: 263 min
[2]
  microsomal CLint at 1 μM: 10.6 µL/min/mg
  half-life at 1 μM: 131 min
[3]
  microsomal CLint at 1 μM: 5.8 µL/min/mg
  half-life at 1 μM: 237 min
[4]
  IC50: 3360 nM

## [2H]C([2H])(c1ccc(OC)nc1)N1C2CC1CN(c1ccc(-c3cc(OCC(C)(C)O)cn4ncc(C#N)c34)cn1)C2 [Example 11, 6-(2-hydroxy-2-methylpropoxy)-4-(6-(6-((6-methoxypyridin-3-yl)methyl-d2)-3,6-diazabicyclo[3.1.1]heptan-3-yl)pyridin-3-yl)pyrazolo[1,5-a]pyridine-3-carbonitrile]
[5]
  IC50: 40.5 nM
[1]
  microsomal CLint at 1 μM: 11.7 µL/min/mg
  half-life at 1 μM: 118 min
[2]
  microsomal CLint at 1 μM: 96.2 µL/min/mg
  half-life at 1 μM: 14.4 min
[3]
  microsomal CLint at 1 μM: 44.8 µL/min/mg
  half-life at 1 μM: 30.9 min
[4]
  IC50: 3510 nM
[6]
  IC50: 19.1 nM

## [2H]C([2H])([2H])Oc1ccc(CN2C3CC2CN(c2ccc(-c4cc(OCC(C)(C)O)cn5ncc(C#N)c45)cn2)C3)cn1 [Example 12, 6-(2-hydroxy-2-methylpropoxy)-4-(6-(6-((6-(methoxy-d3)pyridin-3-yl)methyl)-3,6-diazabicyclo[3.1.1]heptan-3-yl)pyridin-3-yl)pyrazolo[1,5-a]pyridine-3-carbonitrile]
[5]
  IC50: 45.2 nM
[1]
  microsomal CLint at 1 μM: 10.1 µL/min/mg
  half-life at 1 μM: 137 min
[2]
  microsomal CLint at 1 μM: 93.1 µL/min/mg
  half-life at 1 μM: 14.9 min
[3]
  microsomal CLint at 1 μM: 44.9 µL/min/mg
  half-life at 1 μM: 30.8 min
[4]
  IC50: 5930 nM
[6]
  IC50: 16 nM

## [2H]C([2H])([2H])Oc1ccc(C([2H])([2H])N2C3CC2CN(c2ccc(-c4cc(OCC(C)(C)O)cn5ncc(C#N)c45)cn2)C3)cn1 [Example 13, 6-(2-hydroxy-2-methylpropoxy)-4-(6-(6-((6-(methoxy-d3)pyridin-3-yl)methyl-d2)-3,6-diazabicyclo[3.1.1]heptan-3-yl)pyridin-3-yl)pyrazolo[1,5-a]pyridine-3-carbonitrile]
[5]
  IC50: 90 nM
[1]
  microsomal CLint at 1 μM: 10.8 µL/min/mg
  half-life at 1 μM: 128 min
[2]
  microsomal CLint at 1 μM: 92.2 µL/min/mg
  half-life at 1 μM: 15 min
[3]
  microsomal CLint at 1 μM: 42.8 µL/min/mg
  half-life at 1 μM: 32.4 min
[4]
  IC50: > 10000 nM
[6]
  IC50: 23.5 nM
